This data set deals with Hep G2.2.15 cells. As to the kind of experiment: Cell viability by MTT, Hep G2.2.15 cells. Format: cell-based, human. As for the experimental part: The Hep G2.2.15 cells were seeded at 3×10^4 cells/well into 96-well culture plates and incubated at 37° C. in 5% CO2 overnight. After 3 to 4 days, the confluent cultures were cultured at 37° C. for another 3 to 5 days for HBV surface antigen (HBsAg) and HBV e-antigen (HBeAg) induction. Various concentrations of test articles including the positive control substance were then added during the 72 hrs induction period. The cultured media were harvested by centrifugation and the levels of HBsAg and HBeAg were analyzed with commercial enzyme-linked immunosorbant assay (ELISA) kits for HBsAg qualitative testing (General Biologicals Corp., SURASE B-96 (TMB)) and that for HBeAg qualitative testing (General Biologicals Corp., EASE BN-96 (TMB)), respectively. The activity expressed in terms of the efficiency of antigen secretion in percentage (hereinafter referred to as “relative activity”) was calculated with the equation Relative activity (%)=The ratio of the amount of antigen in the cultured medium with treatment to that without treatment×100.
Cell viability was assayed by the MTT method.

For `CC(C)(C)C(=O)OCOP(=O)(COCCn1cnc2c(N)ncnc21)OCOC(=O)C(C)(C)C` [Adefovir, Adefovir dipivoxil], the “MTT (+) drug/(−) drug (Ratio), cytotoxicity” value reads like this: (0.2 uM) 0.961; (1 uM) 0.953.
